Laboratory results: patent US8293734B2, “Nitroimidazooxazine and nitroimidazooxazole analogues and their uses” (priority 2009, dated 2012)
In brackets after ≈: the same amount, converted by molar mass. Like-named read-outs stand apart in the source and are kept apart here.

Assays:
VERO cells (CCL-81) = assay: Mammalian cell cytotoxicity assay (tetrazolium dye); type: cell-based; conditions: Chlorocebus sabaeus, read-out: IC50 VERO
Protocol: (b) Mammalian cell cytotoxicity assay. This was assessed against VERO cells (CCL-81, American Type Culture Collection) in a 72 h exposure, using a tetrazolium dye assay (Falzari et al., 2005).

[1] = system: replicating Mycobacterium tuberculosis; assay: MABA microplate Alamar blue assay, MIC (aerobic); type: cell-based; conditions: 192 h
[2] = system: L. donovani amastigotes (MHOM-ET-67/L82) in mouse macrophages; assay: Leishmania donovani infected macrophage assay; type: cell-based; conditions: 96 h incubation, read-out: IC50 L. donovani macro
Protocol: (§1) (c) Antiprotozoal screening. Compounds were evaluated for their activities against both Trypanosoma cruzi amastigotes and Leishmania donovani amastigotes (free or encapsulated in macrophages), according to the following protocols:
(iii) Leishmania donovani infected macrophage assay. Freshly harvested mouse macrophages in medium (RPMI 1640 plus 10% heat inactivated fetal calf serum) were incubated at 37° C. (5% CO2) for 24 h and then infected (1:3 macrophages to amastigotes) with an axenic L. donovani amastigote culture (MHOM-ET-67/L82) in medium (SM, pH 5.4 plus 10% heat inactivated fetal calf serum). The infected macrophages were seeded at a density of 1.2×10^6/mL (by diluting in RPMI+10% FCS) in 16-well slides (Lab-tek™) and incubated at 37° C. (5% CO2) for 24 h. The medium was removed and replaced by fresh medium (RPMI 1640+10% FCS), and this was repeated following mixing. The infected macrophages were then incubated at 37° C. (5% CO2) for 96 h in either medium alone or in the presence of serial (3-fold) dilutions of test compounds (initially prepared as 10 mg/mL stock solutions in DMSO and diluted into medium). Miltefosin was employed as a standard in each assay. […], the slides were fixed (5 min in 100% MeOH) and stained (10% Giemsa, 10 min). The ratio of infected to uninfected macrophages was determined by microscopic examination, and the IC50 values were then calculated by linear regression analysis.

[3] = system: Axenically grown L. donovani amastigotes (MHOM-ET-67/L82); assay: Axenic Leishmania donovani assay; type: cell-based; conditions: 70 h incubation, read-out: IC50 L. donovani axen
Protocol: as §1
(ii) Axenic Leishmania donovani assay. Axenically grown L. donovani amastigotes (MHOM-ET-67/L82) from a healthy culture in log phase were seeded at a density of 1×10^6/mL medium (SM, pH 5.4 plus 10% heat inactivated fetal calf serum) in 96-well microtitre plates (Costar™) and incubated at 37° C. (5% CO2) for 70 h in either medium alone or in the presence of serial (3-fold) dilutions of test compounds (initially prepared as 10 mg/mL stock solutions in DMSO and diluted into medium). Miltefosin was employed as a standard in each assay. After incubation, Resazurin fluorescent dye was added to each well, and incubation was continued for an additional 2 h. The IC50 values were determined from measurements of the fluorescence data.

[4] = system: Trypanosoma cruzi amastigotes (Tulahuen C2C4 strain); assay: Trypanosoma cruzi assay in infected L-6 cells; type: cell-based; conditions: L6, 96 h incubation, read-out: IC50 T. cruzi
Protocol: as §1
(i) Trypanosoma cruzi assay. L-6 cells (2×10^3) in medium (100 μL of RPMI 1640 supplemented with 2 mM L-glutamine plus 10% heat inactivated fetal calf serum) were seeded in 96-well microtitre plates (Costar™) and incubated at 37° C. (5% CO2) for 1d. A suspension (50 μL) of Trypanosoma cruzi trypomastigotes (5×10^3 of Tulahuen C2C4 strain, containing the β-galactosidase gene) was added, and the cells were incubated at 37° C. (5% CO2) for a further 48 h to establish the infection. The medium was removed and replaced by fresh medium and the infected cells were then incubated at 37° C. (5% CO2) for 96 h in either medium alone or in the presence of serial (3-fold) dilutions of test compounds (initially prepared as 10 mg/mL stock solutions in DMSO and diluted into medium). Benznidazole was employed as a standard in each assay. Following incubation, chlorophenol red glycoside (100 mM) in 0.1% Nonidet P40/PBS (50 μL) was added, and (after 6 h) the absorbance at 540 nm was measured and used to calculate the IC50 values.

| SMILES | melting point | other results |
| --- | --- | --- |
| CC1(COc2ccc(-c3ccc(F)cc3)cc2)Cn2cc([N+](=O)[O-])nc2O1 (centres unmarked) [Compound 10, 2-{[(4′-fluoro[1,1′-biphenyl]-4-yl)oxy]methyl}-2-methyl-6-nitro-2,3-dihydroimidazo[2,1-b][1,3]oxazole] | 180 to 181 °C | IC50 (VERO cells (CCL-81); 72 h exposure): > 128 µM; MIC [1]: 0.045 µM (≈ 0.0166 µg/mL); IC50 [2]: 0.23 µg/mL (≈ 0.623 µM); IC50 [3]: 0.04 µg/mL (≈ 0.108 µM); IC50 [4]: 2 µg/mL (≈ 5.41 µM) |
| O=[N+]([O-])c1cn2c(n1)OC(COc1ccc(-c3ccc(C(F)(F)F)cc3)cc1)CC2 (centres unmarked) | 242 to 245 °C |  |
| CC1(COc2ccc(-c3ccc(OC(F)(F)F)cc3)cn2)CCn2cc([N+](=O)[O-])nc2O1 (centres unmarked) | 195 to 198 °C |  |
| CC1(COc2ccc(-c3ccc(OC(F)(F)F)cc3)nc2)Cn2cc([N+](=O)[O-])nc2O1 (centres unmarked) | 209 to 211 °C |  |
| CC1(COc2ccc(-c3ccc(F)cc3)nc2)Cn2cc([N+](=O)[O-])nc2O1 (centres unmarked) | 180 to 181 °C |  |
| CC1(COc2ncc(-c3ccc(F)cc3)cn2)Cn2cc([N+](=O)[O-])nc2O1 (centres unmarked) | 196 °C (dec.) |  |
| CC1(COc2ccc(-c3ccc(C(F)(F)F)cc3)cc2)CCn2cc([N+](=O)[O-])nc2O1 (centres unmarked) | 196 to 198 °C |  |
| CC1(COc2ccc(-c3ccc(OC(F)(F)F)cc3)cn2)Cn2cc([N+](=O)[O-])nc2O1 (centres unmarked) | 172 to 174 °C |  |
| O=[N+]([O-])c1cn2c(n1)OC(COc1ccc(OCc3ccccc3)cc1)C2 (centres unmarked) | 208 to 210 °C |  |
| CC1(COc2ccc(-c3ccc(C(F)(F)F)cc3)cn2)CCn2cc([N+](=O)[O-])nc2O1 (centres unmarked) | 212 to 214 °C |  |
| O=[N+]([O-])c1cn2c(n1)OC[C@H](COc1ccc(OC(F)(F)F)cc1)C2 | 139 to 140 °C |  |
| CC1(COc2ncc(-c3ccc(OC(F)(F)F)cc3)cn2)Cn2cc([N+](=O)[O-])nc2O1 (centres unmarked) | 227 °C (dec.) |  |
| O=[N+]([O-])c1cn2c(n1)OC(COc1ccc(OC(F)(F)F)cc1)C2 (centres unmarked) | 170 to 172 °C |  |
| CC1(COCc2cccc(OC(F)(F)F)c2)CCn2cc([N+](=O)[O-])nc2O1 (centres unmarked) | 108 to 110 °C |  |
| CC1(COc2ccc(-c3ccc(C(F)(F)F)cc3)nc2)CCn2cc([N+](=O)[O-])nc2O1 (centres unmarked) | 215 to 217 °C |  |
| O=[N+]([O-])c1cn2c(n1)OC(COCc1ccc(OCc3ccccc3)cc1)CC2 (centres unmarked) [Compound 49, 7-({[4-(benzyloxy)benzyl]oxy}methyl)-2-nitro-6,7-dihydro-5H-imidazo[2,1-b][1,3]oxazine] | 151 to 153 °C | IC50 (VERO cells (CCL-81); 72 h exposure): > 128 µM; IC50 [2]: 0.065 µg/mL (≈ 0.164 µM); IC50 [3]: 0.048 µg/mL (≈ 0.121 µM); IC50 [4]: 0.55 µg/mL (≈ 1.39 µM) |
| O=[N+]([O-])c1cn2c(n1)OCC(COCc1ccc(OCc3ccccc3)cc1)C2 (centres unmarked) [Compound 73, 6-({[4-(benzyloxy)benzyl]oxy}methyl)-2-nitro-6,7-dihydro-5H-imidazo[2,1-b][1,3]oxazine] | 150 to 151 °C | IC50 (VERO cells (CCL-81); 72 h exposure): 113 µM; IC50 [2]: 0.53 µg/mL (≈ 1.34 µM); IC50 [3]: 0.16 µg/mL (≈ 0.405 µM); IC50 [4]: 2.8 µg/mL (≈ 7.08 µM) |
| CC1(COc2ccc(OCc3ccccc3)cc2)CCn2cc([N+](=O)[O-])nc2O1 (centres unmarked) | 174 to 176 °C |  |
| CC1(COc2ccc(-c3ccc(F)cc3)cn2)Cn2cc([N+](=O)[O-])nc2O1 (centres unmarked) | 162 to 164 °C |  |
| O=[N+]([O-])c1cn2c(n1)OC(COc1ccc(OCc3ccccc3)cc1)CC2 (centres unmarked) (hydrate or solvate) | 222 to 224 °C |  |
| CC1(COc2ccc(-c3ccc(C(F)(F)F)cc3)cc2)Cn2cc([N+](=O)[O-])nc2O1 (centres unmarked) [Compound 11, 2-methyl-6-nitro-2-({[4′-(trifluoromethyl)[1,1′-biphenyl]-4-yl]oxy}methyl)-2,3-dihydroimidazo[2,1-b][1,3]oxazole] | 219 to 220 °C | IC50 (VERO cells (CCL-81); 72 h): > 128 µM; MIC [1]: 0.08 µM (≈ 0.0335 µg/mL); IC50 [2]: 0.47 µg/mL (≈ 1.12 µM); IC50 [3]: 0.028 µg/mL (≈ 0.0668 µM); IC50 [4]: 18 µg/mL (≈ 42.9 µM) |
| O=[N+]([O-])c1cn2c(n1)OC(COc1ccc(-c3ccc(F)cc3)cc1)C2 (centres unmarked) | 224 to 226 °C |  |
| O=[N+]([O-])c1cn2c(n1)OCC(COc1ccc(-c3ccc(OC(F)(F)F)cc3)nc1)C2 (centres unmarked) | 180 to 181 °C |  |
| O=[N+]([O-])c1cn2c(n1)OC(COCc1ccc(OCc3ccccc3)cc1)C2 (centres unmarked) | 123 to 124 °C |  |

| SMILES | melting point | other results |
| --- | --- | --- |
| O=[N+]([O-])c1cn2c(n1)OCC(COc1ccc(-c3ccc(F)cc3)cn1)C2 (centres unmarked) | 160 to 161 °C |  |
| O=[N+]([O-])c1cn2c(n1)OC(COc1ccc(-c3ccc(C(F)(F)F)cc3)cc1)C2 (centres unmarked) | 210 to 211 °C |  |
| O=[N+]([O-])c1cn2c(n1)OC[C@@H](COc1ccc(OC(F)(F)F)cc1)C2 | 138 to 139 °C |  |
| CC1(COc2ccc(-c3ccc(F)cc3)cc2)CCn2cc([N+](=O)[O-])nc2O1 (centres unmarked) | 160 to 162 °C |  |
| O=[N+]([O-])c1cn2c(n1)OCC(COc1ccc(-c3ccc(C(F)(F)F)cc3)nc1)C2 (centres unmarked) | 233 to 235 °C |  |
| O=[N+]([O-])c1cn2c(n1)OCC(COc1ccc(-c3ccc(F)cc3)cc1)C2 (centres unmarked) | 201 to 203 °C |  |
| O=[N+]([O-])c1cn2c(n1)OC(COc1ccc(-c3ccc(OC(F)(F)F)cc3)cc1)C2 (centres unmarked) | 200 to 201 °C |  |
| O=[N+]([O-])c1cn2c(n1)OCC(COc1ccc(-c3ccc(OC(F)(F)F)cc3)cc1)C2 (centres unmarked) | 192 to 194 °C |  |
| CC1(COc2cnc(-c3ccc(F)cc3)cn2)Cn2cc([N+](=O)[O-])nc2O1 (centres unmarked) | 200 to 201 °C |  |
| O=[N+]([O-])c1cn2c(n1)OCC(COc1ccc(-c3ccc(OC(F)(F)F)cc3)cn1)C2 (centres unmarked) | 182 to 183 °C |  |
| CC1(COCc2cccc(-c3ccc(OC(F)(F)F)cc3)c2)CCn2cc([N+](=O)[O-])nc2O1 (centres unmarked) | 80 to 82 °C |  |
| CC1(COCc2ccc(OC(F)(F)F)cc2)CCn2cc([N+](=O)[O-])nc2O1 (centres unmarked) | 100 to 101 °C |  |
| O=[N+]([O-])c1cn2c(n1)OCC(COc1ccc(OC(F)(F)F)cc1)C2 (racemic) | 141 to 143 °C |  |
| CC1(COc2cnc(-c3ccc(OC(F)(F)F)cc3)nc2)Cn2cc([N+](=O)[O-])nc2O1 (centres unmarked) | 223 to 225 °C |  |
| O=[N+]([O-])c1cn2c(n1)OCC(COc1ccc(-c3ccc(F)cc3)nc1)C2 (centres unmarked) | 214 to 216 °C |  |
| O=[N+]([O-])c1cn2c(n1)OCC(COc1ccc(-c3ccc(C(F)(F)F)cc3)cn1)C2 (centres unmarked) | 180 to 182 °C |  |
| O=[N+]([O-])c1cn2c(n1)OC(COc1ccc(-c3ccc(OC(F)(F)F)cc3)cn1)CC2 (centres unmarked) | 161 to 163 °C |  |
| O=[N+]([O-])c1cn2c(n1)OC(COCc1ccc(OC(F)(F)F)cc1)C2 (centres unmarked) | 134 to 135 °C |  |
| O=[N+]([O-])c1cn2c(n1)OCC(COc1ccc(-c3ccc(C(F)(F)F)cc3)cc1)C2 (centres unmarked) | 218 to 221 °C |  |
| O=[N+]([O-])c1cn2c(n1)OC(COc1ccc(-c3ccc(OC(F)(F)F)cc3)cn1)C2 (centres unmarked) | 127 to 130 °C |  |
| CC1(COc2ccc(-c3ccc(OC(F)(F)F)cc3)nc2)CCn2cc([N+](=O)[O-])nc2O1 (centres unmarked) | 202 to 203 °C |  |
| CC1(COc2cnc(-c3ccc(F)cc3)nc2)Cn2cc([N+](=O)[O-])nc2O1 (centres unmarked) | 201 to 203 °C |  |
| CC1(COc2cnc(-c3ccc(OC(F)(F)F)cc3)cn2)Cn2cc([N+](=O)[O-])nc2O1 (centres unmarked) | 222 to 224 °C |  |
